Source: US20060166996A1, “Phthalazine derivatives as phosphodiesterase 4 inhibitors” (Zambon Group S.P.A., priority 2002, published 2006)
Converted amounts (≈) assume the structure as drawn.

How the values were obtained:
[1] = test system: T1, PDE 4 enzyme; assay: PDE 4 enzyme inhibition (SPA); assay type: biochemical; conditions: for % at 10^−7: PDE 4 from U937 cell line
T1 construct: % at 10^−7; other: at 10^−7; PDE 4 from U937 cell line; other: PDE 4 isolated from U937 cell line; SPA with 3H-cAMP
Method: a) PDE 4 Enzyme Purification
PDE 4 enzyme was isolated from U937 cell line according to the method of Nielson et al. (J. Allergy Clin. Immunol. 1990, vol. 86, pages 801-807) partially modified for the FPLC technique (Fast Protein Liquid Chromatography).
U-937cell line (Istituto Zooprofilattico Sperimentale, Brescia, Italy) was maintained in RPMI 1640, with 10% foetal calf serum and 2 mM glutamine, at a cell density between 1×10^6 and 8×10^6 cells per ml in an incubator at 37° C. with 5% CO2.
U937 suspension was homogenised in a buffer containing 10 mM TRIS (tri-(hydroxymethyl)-aminomethane), 5 mM MgCl2, 4 mM EGTA (ethyleneglycol-bis-(β-aminoethylether)-N,N,N′N′-tetra-acetic acid), 5 mM […]-mercaptoethanol, 1 μM leupeptin, 1 μM pepstatin, 1% TRITON x-100, and 100 μM phenylmethyl sulfonyl fluoride (PMSF) at pH 7.8.
The homogenate was centrifuged and the supernatant was used for the purification of the PDE 4 enzyme; it was seeded on a column connected to a biologic chromatography system (FPLC, BIO RAD).
PDE 4 enzyme was eluted with a linear gradient, from 0.05 M to 1 M of sodium acetate, and elution fractions were collected for PDE4 activity assay.
The fractions containing PDE4 activity were collected and, after an overnight dialysis against water to remove sodium acetate, were concentrated to 30% volume with an Amicon filtration system (using YM10 membrane filter).
Ethylene glycol (30% v/v) was added and the sample was stored at −20° C. in a single aliquot until the use.
PDE 4 activity assay was performed using Scintillation Proximity Assay (SPA) Amershan kit consisting of tracer ^3H-cAMP, PDE assay buffer (10×solution: 500 mM TRIS/HCl pH 7.5, 83 mM MgCl2 and 17 mM EGTA) and Yttrium SPA PDE beads (containing 18 mM zinc sulphate).
The radioactivity of the beads was measured using a scintillation counter (Packard model MINAXI β TRI-CARB 4000 SERIES).
The IC50 values were calculated from concentration-inhibition curves by non linear regression analysis using the program ORIGIN 3.5 (MICROCAL SOFTWARE INC.) and each fitting was the mean±SEM of 3 experiments using different PDE 4 preparations.

[2] = Solubility test by HPLC in PBS pH 7.4; assay type: physicochemical; conditions: for solubility kinetic: PBS (phosphate buffer saline), aqueous buffer, kinetic from dmso stock
Method: HPLC method used to test the solubility.
Solubility test was performed by HPLC analysis (column 4.6×15 mm) water/0.1% TFA —CH3CN/0.06% TFA gradient) against standard.
A […] solution of the substance dissolved in DMSO was prepared.
In order to prepare the sample 190 μl of PBS (Phosphate Buffer Saline, pH 7.4) were added to 10 μl of the above solution; instead (while) in order to prepare the standard 190 μl of DMSO to other 10 μl of solution were added.

[3] = PBS pH 7.4, HPLC against standard, compounds of formula I
[4] = PBS pH 7.4, HPLC, compounds of WO 00/05218

Compound | % at 10^−7 [1] [% at 10^−7] | solubility kinetic [2, 3] [µg/mL] | Sol. [2, 3] [µM] | Sol. [2, 4] [µM] | IC50 ([1]; PDE 4 isolated from U937 cell line, SPA with 3H-cAMP) [nM]
COc1ccc2c(Cc3c(Cl)cncc3Cl)nnc(-c3cc(C(=O)O)cc([N+](=O)[O-])c3)c2c1 [Compound 3, 3-[4-(3,5-dichloro-pyridin-4-ylmethyl)-7-methoxy-phthalazin-1-yl]-5-nitro-benzoic Acid] | 47 | 298 (≈ 614 µM) | 614.43 | – | –
COc1ccc2c(Cc3c(Cl)cncc3Cl)nnc(-c3cc(NS(C)(=O)=O)cc(C(=O)O)c3)c2c1 [Compound 6, 3-[4-(3,5-dichloro-pyridin-4-ylmethyl)-7-methoxy-phthalazin-1-yl]-5-methanesulfonylamino-benzoic Acid] | – | 271 (≈ 508 µM) | 508.44 | – | –
COc1ccc2c(Cc3c(Cl)cncc3Cl)nnc(-c3nc(C(=O)O)co3)c2c1 [Compound 9, 2-[4-(3,5-dichloro-pyridin-4-ylmethyl)-7-methoxy-phthalazin-1-yl]-oxazole-4-carboxylic Acid] | 14 | 202 (≈ 468 µM) | 468.68 | – | –
COc1ccc2c(Cc3c(Cl)cncc3Cl)nnc(-c3ccc(OC)c(C(=O)O)c3)c2c1 [Compound 4, 5-[4-(3,5-dichloro-pyridin-4-ylmethyl)-7-methoxy-phthalazin-1-yl]-2-methoxy-benzoic Acid] | – | 226 (≈ 481 µM) | 480.85 | – | –
3-[4-(3,5-dichloro-pyridin-4-ylmethyl)-7-methoxy-phthalazin-1-yl]-5-methanesulfonylamino-benzoic Acid [Compound 6] | – | – | – | <1 | –
COc1cc(C(=O)O)cc(-c2nnc(Cc3c(Cl)cncc3Cl)c3ccc(OC)cc23)c1 [Compound 7, 3-[4-(3,5-dichloro-pyridin-4-ylmethyl)-7-methoxy-phthalazin-1-yl]-5-methoxy-benzoic Acid] | – | 235 (≈ 500 µM) | 500.00 | – | –
COc1ccc2c(Cc3c(Cl)cncc3Cl)nnc(-c3cc(C(=O)O)ccc3OC)c2c1 [Compound 5, 3-[4-(3,5-dichloro-pyridin-4-ylmethyl)-7-methoxy-phthalazin-1-yl]-4-methoxy-benzoic Acid] | – | 230 (≈ 489 µM) | 489.36 | – | 91.3
5-[4-(3,5-dichloro-pyridin-4-ylmethyl)-7-methoxy-phthalazin-1-yl]-2-methoxy-benzoic Acid [Compound 4] | – | – | – | 37 | –
COc1ccc2c(Cc3c(Cl)cncc3Cl)nnc(-c3ccc(C(=O)O)cc3)c2c1 [Compound 1, 4-[4-(3,5-dichloro-pyridin-4-ylmethyl)-7-methoxy-phthalazin-1-yl]-benzoic Acid] | 25 | 218 (≈ 495 µM) | 495.45 | – | –
